Source: article PMC10265916, “Elraglusib (formerly 9-ING-41) possesses potent anti-lymphoma properties which cannot be attributed to GSK3 inhibition” (Cell Communication and Signaling : CCS, 2023)

Experiments:
Assay type in all cases: biochemical
[1] = biological target: PIM3 (proto-oncogene serine/threonine-protein kinase 3) (Homo sapiens, UniProt Q86V86); assay: […] cell-free kinase screen, […] inhibition at […]
[2] = biological target: PIM1 (proto-oncogene serine/threonine-protein kinase 1) (Homo sapiens, UniProt P11309); assay: […] cell-free kinase screen, […] inhibition at […]
[3] = biological target: T1, MST2 (serine/threonine-protein kinase 3, STK3) (Homo sapiens, UniProt Q13188); assay: […] cell-free kinase screen, […] inhibition at […]
T1 sequence (Q13188 1-491): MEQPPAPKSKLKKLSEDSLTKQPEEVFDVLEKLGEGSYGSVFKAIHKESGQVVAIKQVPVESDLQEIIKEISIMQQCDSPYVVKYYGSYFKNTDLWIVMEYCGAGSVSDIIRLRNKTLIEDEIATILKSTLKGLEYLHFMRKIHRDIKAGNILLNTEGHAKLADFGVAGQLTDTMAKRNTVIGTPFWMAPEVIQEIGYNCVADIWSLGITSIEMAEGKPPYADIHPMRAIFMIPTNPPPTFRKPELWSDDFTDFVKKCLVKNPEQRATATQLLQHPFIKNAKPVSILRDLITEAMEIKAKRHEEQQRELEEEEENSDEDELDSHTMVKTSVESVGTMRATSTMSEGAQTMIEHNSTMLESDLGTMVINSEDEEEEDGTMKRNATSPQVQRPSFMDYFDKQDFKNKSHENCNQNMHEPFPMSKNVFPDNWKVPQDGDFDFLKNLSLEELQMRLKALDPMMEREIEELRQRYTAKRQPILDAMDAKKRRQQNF

GSK3β = biological target: T2, GSK3β (Homo sapiens, UniProt P49841); assay: in vitro GSK3β kinase assay (IC50) and […] cell-free kinase screen
T2 construct: gene GSK3B
T2 sequence (P49841 whole entry): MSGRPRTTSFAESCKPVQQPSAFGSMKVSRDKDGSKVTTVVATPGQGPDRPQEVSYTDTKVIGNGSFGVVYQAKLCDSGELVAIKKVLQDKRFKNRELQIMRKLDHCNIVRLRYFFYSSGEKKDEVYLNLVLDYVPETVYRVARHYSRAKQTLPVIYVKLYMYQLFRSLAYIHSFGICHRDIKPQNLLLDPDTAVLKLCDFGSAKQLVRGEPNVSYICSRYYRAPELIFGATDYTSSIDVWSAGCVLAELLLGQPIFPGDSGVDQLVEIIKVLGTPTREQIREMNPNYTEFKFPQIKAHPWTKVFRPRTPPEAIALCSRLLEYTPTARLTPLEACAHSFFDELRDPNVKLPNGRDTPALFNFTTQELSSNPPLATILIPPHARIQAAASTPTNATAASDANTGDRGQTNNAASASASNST

PIM1 (proto-oncogene serine/threonine-protein kinase 1), sequence (P11309 whole entry): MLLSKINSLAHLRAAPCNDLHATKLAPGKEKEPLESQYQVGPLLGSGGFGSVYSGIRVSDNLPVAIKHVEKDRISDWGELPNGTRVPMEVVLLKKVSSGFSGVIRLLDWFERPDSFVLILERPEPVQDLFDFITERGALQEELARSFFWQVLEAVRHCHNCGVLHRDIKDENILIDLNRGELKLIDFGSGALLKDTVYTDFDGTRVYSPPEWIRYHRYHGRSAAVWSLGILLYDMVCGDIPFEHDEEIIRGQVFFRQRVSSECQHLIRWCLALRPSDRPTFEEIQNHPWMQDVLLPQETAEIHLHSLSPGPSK

With `Cn1cc(C2=C(c3coc4ccc(F)cc34)C(=O)NC2=O)c2cc3c(cc21)OCO3` [elraglusib] the inhibition at 5 µM [1] was > 50%, the inhibition at 5 µM [2] was > 50% and the inhibition at 5 µM [3] was > 50%. The IC50 (GSK3β) was 370 nM.
